From ChEMBL document CHEMBL5726851, “2-oxo-imidazopyridines as reversible BTK inhibitors and uses thereof” (2019)

Molecular target: Tyrosine-protein kinase BTK (Homo sapiens, UniProt Q06187)
Experiment: Microfluidic Off-Chip Mobility Shift Assay Protocol for Potency Assessment Against BTK Enzyme: Briefly, 2.5× stocks of full-length human BTK (08-080) from CarnaBio USA, Inc., Natick, Mass., 1.6×ATP and appropriate kinKDR peptide substrate (FITC-AHA-[…]-NH2; developed in-house) were prepared in kinase reaction buffer consisting of 25 mM MgCl2, 0.015% Brij-35 (30%), 100 mM HEPES, pH 7.5, and 10 mM DTT. 5 uL of enzyme buffer and 7.5 uL of ATP/kinKDR peptide substrate mix were added to Matrix (#115304) 384-well, sterile, polypropylene plates (Thermo Fisher Scientific, Hudson, N.H.) with 125 nL of serially diluted compounds prepared in 100% DMSO, and incubated for 90 min. at 27° C. Following the incubation period, reactions were stopped by adding 60 uL stop buffer consisting of 100 mM HEPES, pH 7.5, 0.015% Brij-35 (30%), 0.277% Coating Reagent #3 (Caliper Life Sciences, Mountain View, Calif.), 5% DMSO. Stopped reactions were monitored at −2 PSI, −3000 V/−700 V in a LabChip 3000 plate reader from Caliper Life Sciences, a PerkinElmer Company (Hopkinton, Mass.), and the activity was measured by off-chip mobility shift assay measuring the charge/mass difference between substrate and product resulting from peptide phosphorilation. IC50 and efficacy were determined by plotting log [Inhibitor] vs. % Activity in GeneData Screener (Basel, Switzerland).

Sequence of Tyrosine-protein kinase BTK (Q06187 whole entry): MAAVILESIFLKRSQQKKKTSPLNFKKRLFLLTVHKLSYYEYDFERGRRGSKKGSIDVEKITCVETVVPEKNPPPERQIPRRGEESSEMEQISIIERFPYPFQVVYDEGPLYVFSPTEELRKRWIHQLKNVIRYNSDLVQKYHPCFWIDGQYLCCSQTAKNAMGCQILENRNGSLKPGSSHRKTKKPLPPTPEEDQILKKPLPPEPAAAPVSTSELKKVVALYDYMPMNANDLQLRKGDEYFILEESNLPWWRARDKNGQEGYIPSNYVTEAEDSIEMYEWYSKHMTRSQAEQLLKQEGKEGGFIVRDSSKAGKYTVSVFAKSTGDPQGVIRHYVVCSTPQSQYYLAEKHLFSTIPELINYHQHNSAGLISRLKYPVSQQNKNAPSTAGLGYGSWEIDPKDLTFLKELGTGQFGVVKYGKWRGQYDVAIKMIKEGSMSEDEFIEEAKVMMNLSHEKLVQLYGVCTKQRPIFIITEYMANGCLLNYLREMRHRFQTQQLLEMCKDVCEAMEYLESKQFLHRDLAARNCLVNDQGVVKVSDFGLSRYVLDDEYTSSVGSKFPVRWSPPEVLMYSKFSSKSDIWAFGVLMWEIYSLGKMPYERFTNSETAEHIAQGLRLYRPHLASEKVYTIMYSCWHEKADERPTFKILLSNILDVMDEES

IC50: < 10 nM
Structure (SMILES): CC(C)(C)c1cc(C(=O)NC2CCCCc3cc(-c4ccnc5[nH]c(=O)[nH]c45)ccc32)on1 (stereo unspecified)
